Results: article PMC9569971, “New Oxazolo[5,4-d]pyrimidines as Potential Anticancer Agents: Their Design, Synthesis, and In Vitro Biological Activity Research” (International Journal of Molecular Sciences, 2022)

How the values were obtained:
HT29 cells = assay: Migration (scratch) assay; type: cell-based, human; settings: control T 155558.2, control T0 544366.45
Method: The scratch test was performed to verify that the tested compound 3g could inhibit the formation of metastases by the HT29 cell line. The seeded HT29 cells were incubated until they formed a monolayer over the entire surface of the well. Then, a scratch test was performed by making a scratch in the monolayer and measuring its width—that is, To, amounting to 544,366.45 μm^2. Freshly prepared compounds were added to the HT29 cells at concentrations of 10, 25, 50, and 100 μM. Breeding plates were incubated for 24 h. The next day, scratch width was measured again using the ImageJ open-source platform. […] The lowest cellular overgrowth of HT29 culture occurred at the concentration of 100 μM for the compound. Compound 3g inhibited the migration of HT29 cells more strongly than the reference drugs, showing that it has the potential to inhibit metastasis. The width of the scratch after 24 h when no compound was applied to the cells was used as a control (T = 155,558.2 μm^2).
All cell lines were grown in 5% CO2 at 95% humidity and 37 °C, with both morphology and confluence assessed twice per week. When the confluence was greater than 70%, adherent cell lines were detached from the bottle surface with a TrypLE solution and then used in assays or reduced. The cells were collected into centrifuge tubes and centrifuged at 1000× g for 5 min at room temperature. The supernatant was removed to dry. The cell pellets were then resuspended in an appropriate medium. The cells were counted using a Bürker chamber and resuspended in 96-well plates to a cell density of 10,000 cells per well for MTT assay. For the rhodamine accumulation test and the detection of apoptosis assay, cells were seeded at a density of 30,000 per well. In the migration assay, cells were seeded at a density of 20,000 per well, and monolayer formation was awaited.
After seeding, HT29 cells were incubated until they formed a monolayer over the entire surface of the well. A scratch was made on the surface overgrown with cells, and then photomicrographs of the scratch were taken using the EVOS FL microscope. The freshly prepared compound 3g and the reference drugs were added at concentrations of 10, 25, 50, and 100 µM. Then, they were incubated for 24 h, and micrographs were performed at that time using the EVOS FL microscope. The scratch width was measured using the ImageJ open-source platform. The measurement of scratch width was also performed after 24 h without adding compounds.

BCL-2 = BCL-2 Human ELISA Kit, HT29 lysate; type: cell-based; settings: lysate of HT29 cells treated with 3g; SD ±0.11
Method: The assay was performed on a lysate of the HT29 colon adenocarcinoma cell line treated with compound 3g. The wells of the assay microplate were coated with a BCL-2-specific antibody, and the BCL-2 present in the test and standards was bound to the antibodies adsorbed in the microwells, which were washed twice with 400 µL of washing buffer per well with careful aspiration. The washing buffer was left in the wells for 15 s before aspiration. Care was taken not to scratch the surface of the microwells. Following the final washing step, the wells were emptied and excess washing buffer was discarded. Two rows of the human standard BCL-2 were prepared at dilutions ranging from 32.0 to 0.5 ng/mL. Biotin conjugate was prepared, and 50 µL of biotin conjugate was added to all wells, covered with adhesive foil, and incubated at room temperature (18 to 25 °C) for 2 h on a microplate shaker. The adhesive film was removed and washed 3 times. […] The color change of the mixture was monitored with an ELISA reader at 620 nm. […] The results were read immediately after the stop solution was added. The reading was taken at the original wavelength of 450 nm. […]
Biological assays were performed in three independent replicates, and each replicate used four samples. […] For the assessment of cytotoxicity, mathematical models were developed using the GraphPad PRISM software, based on which CC50 was determined. […]

Q: How did the “scratch width after 24 h, mean” value (HT29 cells; 10 μM) turn out when `Cc1noc(N)c1-c1nc2c(NCCCN(C)C)ncnc2o1` [Compound 3g, 2-(5-Amino-3-methylisoxazol-4-yl)-7-N-[3-(N,N-dimethylamino)propyl]aminooxazolo[5,4-d]pyrimidine] was run?
A: 180844 μm^2

Q: What about the “scratch width after 24 h, mean” value (HT29 cells; 25 μM) of the same compound?
A: 218581.6 μm^2

Q: What about the “scratch width after 24 h, mean” value (HT29 cells; 50 μM) of the same compound?
A: 245687.8 μm^2

Q: What about the “scratch width after 24 h, mean” value (HT29 cells; 100 μM) of the same compound?
A: 314566.8 μm^2

Q: And the BCL-2 concentration (BCL-2)?
A: 0.41 ng/mL
